This note sets out measurements from US7973059B2, “Potassium channel inhibitors” (Merck Sharp & Dohme Corp., priority 2005, dated 2011).

Chain of human Kv1.5 potassium channel alpha subunit (P22460 whole entry): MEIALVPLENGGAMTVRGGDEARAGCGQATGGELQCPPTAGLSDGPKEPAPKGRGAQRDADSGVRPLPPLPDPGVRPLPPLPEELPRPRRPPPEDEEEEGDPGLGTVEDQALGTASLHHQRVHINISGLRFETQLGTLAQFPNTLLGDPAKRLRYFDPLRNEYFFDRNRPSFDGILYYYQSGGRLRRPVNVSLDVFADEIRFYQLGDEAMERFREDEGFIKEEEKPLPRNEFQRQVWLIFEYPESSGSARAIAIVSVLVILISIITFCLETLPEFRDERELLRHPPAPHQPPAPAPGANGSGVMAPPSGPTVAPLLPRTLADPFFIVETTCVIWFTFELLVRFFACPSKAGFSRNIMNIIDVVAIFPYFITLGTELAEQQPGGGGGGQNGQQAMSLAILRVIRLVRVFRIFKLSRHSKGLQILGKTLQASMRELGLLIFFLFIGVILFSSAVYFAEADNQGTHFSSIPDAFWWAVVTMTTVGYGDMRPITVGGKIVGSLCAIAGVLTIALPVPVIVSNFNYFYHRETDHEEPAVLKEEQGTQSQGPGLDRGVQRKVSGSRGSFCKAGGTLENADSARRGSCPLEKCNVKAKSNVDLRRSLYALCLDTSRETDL

One assay addresses human Kv1.5 potassium channel alpha subunit (Homo sapiens, UniProt P22460). Nature of the assay: High throughput Kv1.5 planar patch clamp assay (Kv1.5 HT-clamp, IonWorks HT). The class given is cell-based. More on the design: Kv1.5 HT-clamp % inhibition: dose or concentration left out as unconfirmed.
Conditions: not given
The text has this: The high throughput Kv1.5 planar patch clamp assay is a systematic primary screen. It confirms activity and provides a functional measure of the potency of agents that specifically affect Kv1.5 potassium channels. Kiss et al. (Assay and Drug Dev. Tech., 1(1-2):127-135, 2003) and Schroeder et al. (J. of Biomol. Screen., 8(1); 50-64, 2003) describe the use of this instrument for Kv1.5 as well as other voltage gated ion channels.
Chinese hamster ovary cells (CHO) stably expressing the human Kv1.5 potassium channel alpha subunit, cloned from human heart, are grown to 90-100% confluence in Ham's F12 medium supplemented with 10% FBS, 100 U/ml penicillin, 100 μg/ml streptomycin, 1000 μg/ml G-418 sulfate. Cells are subcultured by treatment with Versene, then suspended in phosphate-buffered saline (PBS) and centrifuged The cell pellet is re-suspended in PBS and the resulting suspension placed in the cell reservoir of the IonWorks™ HT instrument.
Electrophysiological recordings are performed with intracellular solution containing (mM): K-gluconate 100, KCl 40, MgCl2 3.2, EGTA 3, N-2-hydroxylethylpiperazine-N^1-2-ethanesulphonic acid (HEPES) 5, adjusted to pH 7.3. Amphotericin (Sigma) is prepared as 30 mg/ml stock solution and diluted to a final working concentration of 0.1 mg/ml in internal buffer solution. The external solution is Dulbecco's PBS (Invitrogen) and contains (mM): CaCl2 0.90, KCl 2.67, K3PO4 1.47, MgCl2 0.50, NaCl 138, Na3PO4 8.10 and has a pH of 7.4. All compounds are prepared as 10 mM stock solutions in DMSO. Compounds are diluted into external buffer, then transferred from the drug plate to the Patchplate during the experiment (final DMSO concentration <0.66% vol.).
Kv1.5 ionic currents are recorded at room temperature. Membrane currents are amplified (RMS ˜10 pA) and sampled at 10 kHz. Leak subtraction was performed in all experiments by applying a 160 ms hyperpolarizing (10 mV) pre-pulses 200 ms before the test pulses to measure leak conductance. The patch clamp stimulus protocol is as follows: • 1. Patchplate wells are loaded with 3.5 μL of external buffer. • 2. Planar micropipette hole resistances (Rp) is determined by applying a 10 mV, 160 ms potential difference across each hole (Hole test). • 3. Cells are pipetted into the Patchplate and form high resistance seals with the 1-2 μm holes at the bottom of each Patchplate well. A seal test scan is performed to determine how many of the Patchplate wells have cells that have formed seals. • 4. In order to gain electrical access to the cells, intracellular solution containing amphotericin is circulated for 4 minutes on the bottom side of the Patchplate. • 5. Pre-compound addition test pulse is applied to each well on the Patchplate. Protocol: Cells are voltage clamped at a membrane holding potential of −80 mV for 15 seconds. This is followed by application of a 5 Hz stimulus train (27×150 ms depolarizations to +40 mV). The membrane potential steps to +40 mV evoke outward (positive) ionic currents. • 6. Compound is added to each well of the Patchplate. Compounds are allowed to incubate for 5 minutes. • 7. Post-compound addition test pulse protocol is applied. Protocol: Cells are voltage clamped at a membrane holding potential of −80 mV for 15 seconds. This is followed by application of a 5 Hz stimulus train (27×150 ms depolarizations to +40 mV).
Data analysis is conducted off-line. Paired comparisons between pre-drug and post-drug additions are used to determine the inhibitory effect of each compound. % inhibition of the peak control current during the 27th depolarization to +40 mV (in the 5 Hz train) is plotted as a function of antagonist concentration. The concentrations of drug required to inhibit current by 50% (IC50) are determined by fitting of the Hill equation to the concentration response data: % of Control=100×(1+([Drug]/IC50)^p)^−1 […]
Turning to `OC(c1cccnc1-c1cc(Cl)cc(Cl)c1)C(c1cccnc1)c1cccnc1F` (single isomer, unassigned) [Example 3 Isomer 1, Enantiomer B, 1-[2-(3,5-dichlorophenyl)pyridin-3-yl]-2-(2-fluoropyridin-3-yl)-2-pyridin-3-ylethanol], the “Kv1.5 HT-clamp % inhibition” value came out at 72%.

The same assay, now with this note: CHO cells stably expressing human Kv1.5; 27th depolarization to +40 mV in 5 Hz train.
With `OC(c1cccnc1-c1cc(Cl)cc(Cl)c1)C(c1cccnc1)c1cccnc1F` (single isomer, unassigned) [Example 3 Isomer 2, Enantiomer A, 1-[2-(3,5-dichlorophenyl)pyridin-3-yl]-2-(2-fluoropyridin-3-yl)-2-pyridin-3-ylethanol], half-maximal inhibition (IC50) was put at 154 nM.

For `OC(c1cccnc1-c1ccccc1Cl)C(c1cccnc1)c1cccnc1` (single isomer, unassigned) [Example 4 Enantiomer A, 1-[2-(2-chlorophenyl)pyridin-3-yl]-2,2-dipyridin-3-ylethanol], half-maximal inhibition (IC50) required 171 nM.

Turning to `OC(c1cccnc1-c1cccc(Cl)c1Cl)C(c1cccnc1)c1cccnc1` (single isomer, unassigned) [Example 6 Enantiomer B, 1-[2-(2,3-dichlorophenyl)pyridin-3-yl]-2,2-dipyridin-3-ylethanol], the IC50 (usually the concentration that gives 50% inhibition) is 236 nM.

In turn, `OC(c1cccnc1-c1cccc(Cl)c1Cl)C(c1cccnc1)c1cccnc1` (single isomer, unassigned) [Example 6 Enantiomer A, 1-[2-(2,3-dichlorophenyl)pyridin-3-yl]-2,2-dipyridin-3-ylethanol] registered an IC50 of 5210 nM.

`OC(c1cccnc1-c1cc(Cl)cc(Cl)c1)C(c1cccnc1)c1cccnc1` (racemic) [Example 1 Racemic, racemic 1-[2-(3,5-dichlorophenyl)pyridin-3-yl]-2,2-dipyridin-3-ylethanol] showed an IC50 of 116 nM.

In turn, `O[C@H](c1cccnc1-c1cc(Cl)cc(Cl)c1)C(c1cccnc1)c1cccnc1` [(S)-1-[2-(3,5-dichlorophenyl)pyridin-3-yl]-2,2-dipyridin-3-ylethanol] displayed an IC50 of 2920 nM.

`OC(c1cccnc1-c1cccc(C(F)(F)F)c1)C(c1cccnc1)c1cccnc1` (single isomer, unassigned) [Example 2 Enantiomer B, 2,2-dipyridin-3-yl-1-{2-[3-(trifluoromethyl)phenyl]pyridin-3-yl}ethanol]: the midpoint of inhibition, the IC50, lay at 8220 nM.

`OC(c1cccnc1-c1cccc(C(F)(F)F)c1)C(c1cccnc1)c1cccnc1` (single isomer, unassigned) [Example 2 Enantiomer A, 2,2-dipyridin-3-yl-1-{2-[3-(trifluoromethyl)phenyl]pyridin-3-yl}ethanol] registered an IC50 of 290 nM.

`OC(c1cccnc1-c1cc(Cl)ccc1Cl)C(c1cccnc1)c1cccnc1` (single isomer, unassigned) [Example 5 Enantiomer A, 1-[2-(2,5-dichlorophenyl)pyridin-3-yl]-2,2-dipyridin-3-ylethanol]: 3200 nM corresponded to half-maximal inhibition (IC50).

Consider `OC(c1cccnc1-c1ccccc1Cl)C(c1cccnc1)c1cccnc1` (single isomer, unassigned) [Example 4 Enantiomer B, 1-[2-(2-chlorophenyl)pyridin-3-yl]-2,2-dipyridin-3-ylethanol], for which 25000 nM corresponded to half-maximal inhibition (IC50).

Take `OC(c1cccnc1-c1ccccc1Cl)C(c1cccnc1)c1cccnc1` (racemic) [Example 4 Racemic, racemic 1-[2-(2-chlorophenyl)pyridin-3-yl]-2,2-dipyridin-3-ylethanol]: the IC50 amounted to 422 nM.

On to `OC(c1cccnc1-c1cc(Cl)ccc1Cl)C(c1cccnc1)c1cccnc1` (single isomer, unassigned) [Example 5 Enantiomer B, 1-[2-(2,5-dichlorophenyl)pyridin-3-yl]-2,2-dipyridin-3-ylethanol], for which it took 75 nM to reach half-maximal inhibition (IC50).

Molecule `OC(c1cccnc1-c1cccc(C(F)(F)F)c1)C(c1cccnc1)c1cccnc1` (racemic) [Example 2 Racemic, racemic 2,2-dipyridin-3-yl-1-{2-[3-(trifluoromethyl)-phenyl]pyridin-3-yl}ethanol] yielded an IC50 of 266 nM.

With `OC(c1cccnc1-c1cccc(Cl)c1Cl)C(c1cccnc1)c1cccnc1` (racemic) [Example 6 Racemic, racemic 1-[2-(2,3-dichlorophenyl)pyridin-3-yl]-2,2-dipyridin-3-ylethanol], the midpoint of inhibition, the IC50, lay at 110 nM.

Molecule `OC(c1cccnc1-c1cc(Cl)ccc1Cl)C(c1cccnc1)c1cccnc1` (racemic) [Example 5 Racemic, racemic 1-[2-(2,5-dichlorophenyl)pyridin-3-yl]-2,2-dipyridin-3-ylethanol] came in with an IC50 of 77 nM.

The molecule `OC(c1cccnc1-c1cc(Cl)cc(Cl)c1)C(c1cccnc1)c1cccnc1F` (single isomer, unassigned) [Example 3 Isomer 1, Enantiomer A, 1-[2-(3,5-dichlorophenyl)pyridin-3-yl]-2-(2-fluoropyridin-3-yl)-2-pyridin-3-ylethanol] came in with an IC50 of 96 nM.

Consider `O[C@@H](c1cccnc1-c1cc(Cl)cc(Cl)c1)C(c1cccnc1)c1cccnc1` [(R)-1-[2-(3,5-dichlorophenyl)pyridin-3-yl]-2,2-dipyridin-3-ylethanol], for which 90 nM corresponded to half-maximal inhibition (IC50).

The assay is the same for the next values; noted with them: at 10000 nM.
As for `OC(c1cccnc1-c1cc(Cl)cc(Cl)c1)C(c1cccnc1)c1cccnc1F` (single isomer, unassigned) [Example 3 Isomer 2, Enantiomer B, 1-[2-(3,5-dichlorophenyl)pyridin-3-yl]-2-(2-fluoropyridin-3-yl)-2-pyridin-3-ylethanol], the inhibition (as a rule, the drop in the measured response relative to a control, in per cent) at 10 µM stood at 89%.
